The supplement of paper PMC6045584

Key:
Test in all cases: area under dose-response curve of surviving fraction (unscaled, Aref=0) (surviving fraction x log10(nM)); higher = more resistant
Conditions in all cases: exposure time: 5 days; dose range 0.5-1000 nM
[1] = compound: C=CCn1c(=O)c2cnc(Nc3ccc(N4CCN(C)CC4)cc3)nc2n1-c1cccc(C(C)(C)O)n1 [MK-1775]
Summary of the method: (§1)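 Tumour cell lines in 384-well plates were exposed to eight inhibitor concentrations, from 0.5 to 1000 nM, for five days, and viability was read by CellTiter-Glo luminescence in three screens per line. Signals were normalised to DMSO-only wells, and 3-parameter logistic regression in the drc R package fitted dose-response survival curves to the surviving fractions. Area under the curve is given as the unscaled activity area. That area is taken over log10 dose with Aref = 0.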

[2] = compound: CC/C(=C(\c1ccc(O)cc1)c1ccc(OCCN(C)C)cc1)c1ccccc1 [AFIMOXIFENE]
Summary of the method: as §1

[3] = compound: CCc1cc(Nc2nccc(-c3c(-c4ccc(OC)c(C(=O)Nc5c(F)cccc5F)c4)nc4ccccn34)n2)c(OC)cc1N1CCC(N2CCN(S(C)(=O)=O)CC2)CC1
Summary of the method: as §1

[4] = compound: COc1cc2nccc(Oc3ccc(NC(=O)C4(C(=O)Nc5ccc(F)cc5)CC4)cc3)c2cc1OC [CABOZANTINIB]
Summary of the method: as §1

[5] = compound: COc1ccc(-c2cc3c(C)nc(N)nc3n([C@H]3CC[C@H](OCCO)CC3)c2=O)cn1
Summary of the method: as §1

[6] = compound: C[C@H](CN(C)C)Oc1nc(Nc2cc3cccc(Cl)c3cn2)cnc1C#N
Summary of the method: as §1

[7] = compound: Cc1c(N)nc([C@H](CC(N)=O)NC[C@H](N)C(N)=O)nc1C(=O)N[C@H](C(=O)N[C@H](C)[C@@H](O)[C@H](C)C(=O)N[C@H](C(=O)NCCc1nc(-c2nc(C(=O)NCCC[S+](C)C)cs2)cs1)[C@@H](C)O)[C@@H](OC1OC(CO)C(O)C(O)C1OC1OC(CO)C(O)C(OC(N)=O)C1O)c1cnc[nH]1 [BLEOMYCIN]
Summary of the method: as §1

[8] = compound: Cc1ccc(NC(=O)c2ccc(CN3CCN(C)CC3)cc2)cc1Nc1nccc(-c2cccnc2)n1 [IMATINIB]
Summary of the method: as §1

[9] = compound: Cc1cn(-c2cc(NC(=O)c3ccc(C)c(Nc4nccc(-c5cccnc5)n4)c3)cc(C(F)(F)F)c2)cn1 [NILOTINIB]
Summary of the method: as §1

[10] = compound: Cn1c(=O)n(-c2ccc(C(C)(C)C#N)cc2)c2c3cc(-c4cnc5ccccc5c4)ccc3ncc21 [BEZ-235]
Summary of the method: as §1

[11] = compound: Cn1ncnc1[C@H]1c2n[nH]c(=O)c3cc(F)cc(c23)N[C@@H]1c1ccc(F)cc1 [BMN-673]
Summary of the method: as §1

[12] = compound: O=C(CCCCCCC(=O)Nc1ccccc1)NO [VORINOSTAT]
Summary of the method: as §1

## HS57T LUNG
[1]
  area under dose-response curve: 2.19
[2]
  area under dose-response curve: 3.68
[3]
  area under dose-response curve: 3.36
[4]
  area under dose-response curve: 3.09
[5]
  area under dose-response curve: 2.21
[6]
  area under dose-response curve: 2.65
[7]
  area under dose-response curve: 2.57
[8]
  area under dose-response curve: 3.57
[9]
  area under dose-response curve: 3.38
[10]
  area under dose-response curve: 1.94
[11]
  area under dose-response curve: 2.92
[12]
  area under dose-response curve: 3.16
